# According to patent US11020409B2, “Broad antiviral therapy with membrane modifying oxysterols” (priority 2012, dated 2021):
# Tested on: VSV-GFP
# Assay: microbe, parasite or virus in culture
# Assay type: cell-based, vesicular stomatitis virus
structure (smiles),measurement,value
"C[C@H](CCCC(C)(C)O)[C@H]1CC[C@H]2[C@@H]3CC=C4C[C@@H](O)CC[C@]4(C)[C@H]3CC[C@]12C [25HC, 25-hydroxycholesterol]","VSV infection in HEK293T overexpressing active forms of SREBP1-A, SREBP1-B, and SREBP2",inhibited VSV infection
